Measurements: patent publication US10316017B2, “COT modulators and methods of use thereof” (Gilead Sciences, Inc., priority 2015, dated 2019)
pEC50, pIC50: −log10 of the molar value. Where two headings read alike, the source gives them in different places.

Experiments:
[1] = test system: TNFα production in LPS-stimulated human monocytes; assay: Cot Monocyte TNFα Cell Based Assay; conditions: Homo sapiens, Monocyte, read-out: EC50 TNF
How it was run: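 Human monocytes (5,000 cells/well) pretreated with compound for 1 hour at 37° C (0.5% DMSO), then stimulated with 50 pg/ml LPS for 4 hours. Total TNFα measured by TR-FRET after overnight antibody incubation at room temp, expressed as percent of control between unstimulated and stimulated cells.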

[2] = molecular target: T1, human Cot catalytic domain (30-397 amino acids) (Homo sapiens, UniProt P41279); assay: High Throughput Cot Biochemical Assay (KinEASE TR-FRET); conditions: Cot KinEASE TR-FRET (HTRF) biochemical assay, 400 μM ATP; read-out: IC50 HTRF
T1 construct: Purified recombinant human Cot catalytic domain (30-397 amino acids) was purchased from Cama Biosciences; purchased Cama Biosciences (so in the source)
T1 sequence (P41279 30-397): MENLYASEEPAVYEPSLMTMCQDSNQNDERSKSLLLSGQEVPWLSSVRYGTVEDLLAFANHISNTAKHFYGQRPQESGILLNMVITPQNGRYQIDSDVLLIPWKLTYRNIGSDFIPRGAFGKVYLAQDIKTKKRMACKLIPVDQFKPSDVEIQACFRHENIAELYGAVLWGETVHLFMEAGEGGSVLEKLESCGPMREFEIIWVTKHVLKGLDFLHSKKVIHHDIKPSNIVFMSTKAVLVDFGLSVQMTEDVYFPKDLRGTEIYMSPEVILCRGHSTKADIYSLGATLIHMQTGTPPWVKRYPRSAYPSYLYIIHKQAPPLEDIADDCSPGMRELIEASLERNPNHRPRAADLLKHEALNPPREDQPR
How it was run: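 Recombinant human Cot catalytic domain (aa 30-397), 5 nM, with 1 μM STK3 peptide and 400 μM ATP in MOPS pH 7.0 buffer with MgOAc, DTT, BSA, NP-40, glycerol, 0.1% DMSO. Phosphorylated XL665-peptide detected by Eu-[…] antibody TR-FRET.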

[3] = TNFα in LPS-stimulated human monocytes

Structure (SMILES)	pEC50 [1, 3]	pIC50 [2]	pEC50 [1]
[2H][C@](Nc1cc(C#N)c2ncc(C#N)c(NCC(C)(C)C)c2c1)(c1cccc(C#N)c1)c1cn(C2CC2)nn1 [Example 240, (S)-6-(((3-cyanophenyl)(1-cyclopropyl-1H-1,2,3-triazol-4-yl)methyl-d)amino)-4-(neopentylamino)quinoline-3,8-dicarbonitrile]	7.15	9.00	
[2H][C@](Nc1cc(Cl)c2ncc(C#N)c(NC3(C)CC3)c2c1)(c1ccc(F)cc1)c1cn(C2CC2)nn1 [Example 241, (S)-8-chloro-6-(((1-cyclopropyl-1H-1,2,3-triazol-4-yl)(4-fluorophenyl)methyl-d)amino)-4-((1-methylcyclopropyl)amino) quinoline-3-carbonitrile]	5.29	6.02	
[2H][C@](Nc1cc(C#N)c2ncc(C#N)c(N[C@H](CC)c3ccccc3)c2c1)(c1cccc(C#N)c1)c1cn(C2CC2)nn1 [Example 243, 6-(((S)-(3-cyanophenyl)(1-cyclopropyl-1H-1,2,3-triazol-4-yl)methyl-d)amino)-4-(((R)-1-phenylpropyl)amino)quinoline-3,8-dicarbonitrile]	7.39	8.70	
[2H][C@](Nc1cc(Cl)c2ncc(C#N)c(N[C@@H](C)C(C)(C)C)c2c1)(c1ccc(F)cc1)c1cn(C2CC2)nn1 [Example 244, 8-chloro-6-(((S)-(1-cyclopropyl-1H-1,2,3-triazol-4-yl)(4-fluorophenyl)methyl-d)amino)-4-(((S)-3,3-dimethylbutan-2-yl)amino)quinoline-3-carbonitrile]	5.24	6.24	
[2H][C@](Nc1cc(Cl)c2ncc(C#N)c(NC34CC5CC(CC(C5)C3)C4)c2c1)(c1ccc(F)cc1)c1cn(C2CC2)nn1 [Example 245, 4-(((3R,5R,7R)-adamantan-1-yl)amino)-8-chloro-6-(((S)-(1-cyclopropyl-1H-1,2,3-triazol-4-yl)(4-fluorophenyl)methyl-d)amino)quinoline-3-carbonitrile]	6.25	7.34	
[2H][C@](Nc1cc(Cl)c2ncc(C#N)c(NC3C4CC5CC(C4)CC3C5)c2c1)(c1ccc(F)cc1)c1cn(C2CC2)nn1 (stereo partly drawn) [Example 246, 4-(((1S,3S,5S,7S)-adamantan-2-yl)amino)-8-chloro-6-(((S)-(1-cyclopropyl-1H-1,2,3-triazol-4-yl)(4-fluorophenyl)methyl-d)amino)quinoline-3-carbonitrile]	6.31	7.72	
[2H][C@](Nc1cc(Cl)c2ncc(C#N)c(N[C@H](CC#N)C(C)(C)C)c2c1)(c1ccc(F)cc1)c1cn(C2CC2)nn1 [Example 247, 8-chloro-4-(((R)-1-cyano-3,3-dimethylbutan-2-yl)amino)-6-(((S)-(1-cyclopropyl-1H-1,2,3-triazol-4-yl)(4-fluorophenyl)methyl-d)amino)quinoline-3-carbonitrile]	6.20	7.55	
[2H][C@](Nc1cc(Cl)c2ncc(C#N)c(N[C@@H](CCC#N)c3ccccc3)c2c1)(c1ccc(F)cc1)c1cn(C2CC2)nn1 [Example 248, 8-chloro-4-(((S)-3-cyano-1-phenylpropyl)amino)-6-(((S)-(1-cyclopropyl-1H-1,2,3-triazol-4-yl)(4-fluorophenyl)methyl-d)amino)quinoline-3-carbonitrile]	< 5.00	5.50	
[2H][C@](Nc1cc(Cl)c2ncc(C#N)c(N[C@H](CCC#N)c3ccccc3)c2c1)(c1ccc(F)cc1)c1cn(C2CC2)nn1 [Example 249, 8-chloro-4-(((R)-3-cyano-1-phenylpropyl)amino)-6-(((S)-(1-cyclopropyl-1H-1,2,3-triazol-4-yl)(4-fluorophenyl)methyl-d)amino)quinoline-3-carbonitrile]	7.68	9.00	
[2H][C@](Nc1cc(Cl)c2ncc(C#N)c(N[C@H](CC)c3ccccc3)c2c1)(c1cccc(C#N)c1)c1cn(C(C)(C)C)nn1 [Example 252, 6-(((S)-(1-(tert-butyl)-1H-1,2,3-triazol-4-yl)(3-cyanophenyl)methyl-d)amino)-8-chloro-4-(((R)-1-phenylpropyl)amino)quinoline-3-carbonitrile]	7.10	8.30	
[2H][C@](Nc1cc(Cl)c2ncc(C#N)c(N[C@H](CC)c3ccccc3)c2c1)(c1ccc(F)cc1)c1cn(C(C)(C)C)nn1 [Example 253]	6.67	7.80	
[2H][C@](Nc1cc(F)c2ncc(C#N)c(NC(CCC#N)c3ccccc3)c2c1)(c1cccc(C#N)c1)c1cn(C2CC2)nn1 (stereo partly drawn) [Example 254, 4-((3-cyano-1-phenylpropyl)amino)-6-(((S)-(3-cyanophenyl) (1-cyclopropyl-1H-1,2,3-triazo1-4-yl)methyl-d)amino)-8-fluoroquinoline-3-carbonitrile]	7.38	8.52	
[2H][C@](Nc1cc(F)c2ncc(C#N)c(NC(CCC#N)c3ccccc3)c2c1)(c1ccc(F)cc1)c1cn(C2CC2)nn1 (stereo partly drawn) [Example 255, 4-((3-cyano-1-phenylpropyl)amino)-6-(((S)-(1-cyclopropyl-1H-1,2,3-triazol-4-yl)(4-fluorophenyl)methyl-d)amino)-8-fluoroquinoline-3-carbonitrile]	7.21	8.30	
[2H][C@](Nc1cc(F)c2ncc(C#N)c(NCC(C)(C)C)c2c1)(c1cccc(C#N)c1)c1cn(C2CC2)nn1 [Example 256, (S)-6-(((3-cyanophenyl)(1-cyclopropyl-1H-1,2,3-triazol-4-yl)methyl-d)amino)-8-fluoro-4-(neopentylamino)quinoline-3-carbonitrile]	6.92	8.52	
[2H][C@](Nc1cc(F)c2ncc(C#N)c(N[C@H](CC)c3ccccc3)c2c1)(c1cccc(C#N)c1)c1cn(C2CC2)nn1 [Example 257, 6-(((S)-(3-cyanophenyl)(1-cyclopropyl-1H-1,2,3-triazol-4-yl)methyl-d)amino)-8-fluoro-4-(((R)-1-phenylpropyl)amino)quinoline-3-carbonitrile]	7.03	8.52	
CC[C@@H](Nc1c(C#N)cnc2c(Cl)cc(N[C@H](c3cn(C4CC4)nn3)c3cc(C#N)ccc3Cl)cc12)c1ccccc1 [Example 258, 8-chloro-6-(((S)-(2-chloro-5-cyanophenyl)(1-cyclopropyl-1H-1,2,3-triazol-4-yl)methyl)amino)-4-(((R)-1-phenylpropyl)amino)quinoline-3-carbonitrile]	6.19	7.36	
[2H][C@](Nc1cc(Cl)c2ncc(C#N)c(N[C@H](CCO)c3ccccc3)c2c1)(c1cccc(C#N)c1)c1cn(C2CC2)nn1 [Example 259, 8-chloro-6-(((3-cyanophenyl)(1-cyclopropyl-1H-1,2,3-triazol-4-yl)methyl-d)amino)-4-(((R)-3-hydroxy-1-phenylpropyl)amino)quinoline-3-carbonitrile]	7.06	8.30	
[2H][C@](Nc1cc(Cl)c2ncc(C#N)c(NCC3(C4CC4)CCC3)c2c1)(c1ccc(F)cc1)c1cn(C2CC2)nn1 [Example 260, (S)-8-chloro-6-(((1-cyclopropyl-1H-1,2,3-triazol-4-yl)(4-fluorophenyl)methyl-d)amino)-4-(((1-cyclopropylcyclobutyl)methyl)amino)quinoline-3-carbonitrile]	6.23	7.48	
[2H][C@](Nc1cc(Cl)c2ncc(C#N)c(NC[Si](C)(C)C)c2c1)(c1ccc(F)cc1)c1cn(C2CC2)nn1 [Example 262, (S)-8-chloro-6-(((1-cyclopropyl-1H-1,2,3-triazol-4-yl)(4-fluorophenyl)methyl-d)amino)-4-(((trimethylsilyl)methyl)amino) quinoline-3-carbonitrile]		8.00	6.59
[2H]C(Nc1cc(Cl)c2ncc(C#N)c(NCC(C)(C)C)c2c1)(c1ccc(F)cc1)c1nnnn1Cc1ccc(OC)cc1 (stereo not shown) [Example 263, 8-chloro-6-(((4-fluorophenyl) (1-(4-methoxybenzyl)-1H-tetrazol-5-yl)methyl-d)amino)-4-(neopentylamino)quinoline-3-carbonitrile]	< 5.00	6.13	
N#Cc1cnc2c(Cl)cc(N[C@@H](c3cccc(C(F)(F)F)c3)c3cn(C4CC4)nn3)cc2c1Nc1cnc(F)c(F)c1 [Example 264, (S)-8-chloro-6-(((1-cyclopropyl-1H-1,2,3-triazol-4-yl)(3-(trifluoromethyl)phenyl)methyl)amino)-4-((5,6-difluoropyridin-3-yl)amino)quinoline-3-carbonitrile]	6.25	7.35	
N#Cc1cnc2c(Cl)cc(N[C@@H](c3cccc(F)c3)c3cn(C4CC4)nn3)cc2c1Nc1cnc(F)c(F)c1 [Example 265, (S)-8-chloro-6-(((1-cyclopropyl-1H-1,2,3-triazol-4-yl)(3-fluorophenyl)methyl)amino)-4-((5,6-difluoropyridin-3-yl)amino)quinoline-3-carbonitrile]	6.33	7.92	
N#Cc1cnc2c(Cl)cc(N[C@@H](c3cccc(Cl)c3)c3cn(C4CC4)nn3)cc2c1Nc1cnc(F)c(F)c1 [Example 266, (S)-8-chloro-6-(((3-chlorophenyl)(1-cyclopropyl-1H-1,2,3-triazol-4-yl)methyl)amino)-4-((5,6-difluoropyridin-3-yl)amino)quinoline-3-carbonitrile]	6.37	7.80	
